# Assay results taken from patent US8530453B2, “Compounds and methods for the treatment of pain and other diseases” (Aquilus Pharmaceuticals, Inc., priority 2009, dated 2013).
# Columns and labels:
# [1] = tested on: spinal nerve ligation (SNL) mouse model, mechanical allodynia; assay: Intrathecal (i.t.) administration in the SNL mouse model of pain, von Frey tactile allodynia test; assay type: in vivo; conditions: for 50% paw withdrawal threshold, mean, Day (-2) Pre-operative Baseline: group baseline prior to SNL injury, before treatment, FVB male mice
# From the text: (§1) To measure the neuropathic pain inhibiting affects of the MMP inhibitors of the present invention, the spinal nerve ligation (SNL) mouse model was run on a select number of compounds. This model which began with the work of Bennet and coworkers (Bennet, G. J. et al. Pain, 33, (1988), 87-107) and was optimized by Kim and Chung (Kim, S. H.; Chung, J. M. Pain, 50, (1992), 355-363) entails first, under magnification, the removal of one-third of the transverse process and then identifying and then dissecting free the L5 spinal nerve from the adjacent L4 spinal nerve in the mouse. The L5 spinal nerve is then tightly ligated using 6.0 silk suture. The nerve injury leads to hyperalgesia which manifests itself by enhanced responses to mechanical, heat and/or cooling stimuli. In this case, mechanical hyperalgesia is tested via Von Frey monofilaments in which filaments of varying thicknesses and bending force are individually applied to the plantar surface of the foot of the mouse. The threshold force necessary for paw withdrawal decreases dramatically after the nerve surgery. Potent pain inhibitors will reverse this affect resulting in greater force needing to be applied to cause the rodent paw to withdrawal.
# Following preoperative baseline (Day −2) paw threshold measurement, FVB male mice were subjected to SNL injury (Day −1). […] Over the course of the study, paw withdrawal threshold of these animals was measured in response to mechanical stimulation using the von Frey Monofilament Test. […]
# (§2) Tactile Allodynia Test. Mechanical allodynia was measured using the calibrated von Frey filaments (Semmes-Weinstein monofilaments; Stoelting, Wood Dale, Ill., U.S.A.). […] The Fifty percent paw withdrawal threshold response was determined by sequentially increasing or decreasing the stimulus strength according to the “up-down method” of Dixon (Annual Review Pharmacology Toxicology, 20, (1980), 441-462). […]
# [2] = In-vitro mouse microsomal stability; assay type: in vitro ADME; conditions: compound 1 microMolar, at T = 60 minutes; for % Mean Remaining Parent with NADPH (%): mouse microsomes 0.3 mg/mL, 37 C; for % Mean Remaining Parent without NADPH (%): mouse microsomes, control omitting NADPH
# Description: Human and mouse microsomal stability was determined for select compounds following the method of Houston (Houston, J B; Biochem. Pharmacol. 47, (1994), 1469).
# 1 μM concentration of compound and seperate human and mouse microsomes (0.3 mg/mL, BD bioscience) were used in the in-vitro assay. To ensure proper energy supply for microsomal degradation of compound, an energy regenerating system comprised of 100 mM potassium phosphate, 2 mM NADPH, 3 mM MgCl2, pH=7.4. and the microsomal protein is added to each sample and the resulting suspension is then incubated in duplicate for 60 min at 37° C. in a rotary shaker. A control is run for each test agent in duplicate omitting NADPH to detect NADPH-free degradation. At T=0 and T=60 min., an aliquot is removed from each experimental and control reaction and then mixed with an equal volume of ice-cold Stop Solution (consisting of 0.3% acetic acid in acetonitrile containing haloperidol and diclofenac as internal standards). Stopped reactions are then incubated for at least ten minutes at −20° C., and an additional volume of water is then be added. The samples are then centrifuged to remove precipitated protein, and the supernatants are then analyzed by LC-MS/MS to determine the percentage of compound remaining. The LC-MS/MS system used was an Agilent 6410 mass spectrometer coupled with an Agilent 1200 HPLC and a CTC PAL chilled autosampler, all controlled by MassHunter software (Agilent), or an ABI2000 mass spectrometer coupled with an Agilent 1100 HPLC and a CTC PAL chilled autosampler, all controlled by Analyst software (ABI). After separation on a C18 reverse phase HPLC column (Agilent, Waters, or equivalent) using an acetonitrile-water gradient system, peaks were analyzed by mass spectrometry (MS) using ESI ionization in MRM mode.
# [3] = tested on: spinal nerve ligation (SNL) mouse model, mechanical allodynia; assay: Intraperitoneal (i.p.) administration in the SNL mouse model of pain, von Frey tactile allodynia test; assay type: in vivo
# From the text: as §1, with “The threshold force necessary for paw withdrawal decreases dramatically after the nerve surgery. Potent pain inhibitors will reverse this affect resulting in greater force needing to be applied to cause the rodent paw to withdrawal.” left out
# as §2
# [4] = target: Catalytic domain of MMP-9 (human recombinant) (Homo sapiens, UniProt P14780); assay: biochemical; conditions: read-out: Average Percent Inhibition (MMP-9)
# Catalytic domain of MMP-9 (human recombinant), sequence (P14780 107-444 limits assumed): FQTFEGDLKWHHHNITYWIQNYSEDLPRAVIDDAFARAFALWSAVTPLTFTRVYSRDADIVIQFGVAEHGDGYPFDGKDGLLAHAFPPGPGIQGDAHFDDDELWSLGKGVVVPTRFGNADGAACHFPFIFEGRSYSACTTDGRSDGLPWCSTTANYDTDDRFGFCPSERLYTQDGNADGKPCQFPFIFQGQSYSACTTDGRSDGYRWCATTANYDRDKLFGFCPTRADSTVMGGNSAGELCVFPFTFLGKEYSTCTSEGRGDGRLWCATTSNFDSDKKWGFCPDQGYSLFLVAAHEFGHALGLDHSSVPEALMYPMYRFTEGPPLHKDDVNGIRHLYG
# Description: A concentration of MMP inhibitor of the present invention was tested (1 microMolar) in duplicate runs. […] The mixture of enzyme and compound in assay buffer was then thoroughly mixed and incubated for 60 minutes at 37° C. Upon the completion of incubation, the assay was started by the addition of 10 μM of fluorescent substrate DNP-Pro-Cha-Gly-Cys(Me)-His-Ala-Lys(n-Me-Abz)-NH2 [SEQ ID NO: 1][Cha=β-cyclohexylalanyl; Abz=2-aminobenzoyl(anthraniloyl)] (Kd˜7 microMolar). The fluorescent product, DnpPChaG, was then measured at excitation of 365 nm and emission 450 nm by an automatic plate multireader at 37° C.
# mechanical nociception = conditions: in vivo; cited from earlier work
# humans = conditions: clinical; cited from earlier work
# [5] = tested on: chronic constriction injury (CCI)-mouse model; conditions: epineural daily injections, after the third day; cited from earlier work
smiles,measurement,setting,value
"Cc1ccc(C#Cc2ccc(S(=O)(=O)N[C@H](Cc3c[nH]c4ccccc34)C(=O)O)s2)cc1 [Compound 5, (R)-3-(1H-Indol-3-yl)-2-(5-p-tolylethynyl-thiophene-2-sulfonylamino)-propionic acid]","50% paw withdrawal threshold, mean, Day (-2) Pre-operative Baseline",[1],1.265 g
same,% Mean Remaining Parent with NADPH (%),[2],83%
same,% Mean Remaining Parent without NADPH (%),[2],88%
"[2H]C([2H])([2H])c1ccc(C#Cc2ccc(S(=O)(=O)N[C@H](Cc3c[nH]c4ccccc34)C(=O)O)s2)cc1 [Compound 10, (R)-3-(1H-Indol-3-yl)-2-[5-(4-trideuteromethyl-phenylethynyl)-thiophene-2-sulfonylamino]-propionic acid-(D3, 98%)]","50% paw withdrawal threshold, mean, Day (-2) Pre-operative Baseline",[1],1.268 g
same,Reversal of allodynia (in words),"[1]; i.t., as compared to vehicle and compound #5",almost complete reversal of allodynia
same,% Mean Remaining Parent with NADPH (%),[2],85%
same,% Mean Remaining Parent without NADPH (%),[2],91%
same,Reversal of mechanical allodynia (in words),[3]; i.p. approx. 3.3 mg/Kg daily,complete reversal of mechanical alodynia by day 5
same,Duration of effect after last injection (in words),"[3]; i.p., 48 hours (day 6) from the last injection (day 4)",rather prolonged effect
same,inhibition at 1 µM,[4],78%
CNC(=O)[C@H](Cc1c[nH]c2ccccc12)NC(=O)[C@@H](CC(=O)NO)CC(C)C [GM6001],Effect on mechanical nociception (in words),mechanical nociception,found to attenuate mechanical nociception
CNC(=O)[C@@H](NC(=O)[C@H](CC(C)C)[C@H](O)C(=O)NO)C(C)(C)C [Marimastat],Toxicities in humans (in words),humans,"time-dependent and dose-dependent musculoskeletal toxicities (arthralgia, myalgia, tendinitis)"
CC(C)C[C@H](CC(=O)NO)C(=O)N[C@@H](Cc1ccc2ccccc2c1)C(=O)N[C@@H](C)C(N)=O [TAPI-0],Effect on mechanical allodynia and thermal hyperalgesia (in words),[5],able to block both mechanical allodynia and thermal hyperalgesia
